What was measured:
[1] = test system: LTB4 synthesis by rat polymorphonuclear leukocytes (lipoxygenase); experiment: inhibition of LTB4 synthesis by rat glycogen-elicited polymorphonuclear leukocytes (PMN); assay type: cell-based, rat (female Wistar)
Description: This is especially true with respect to 5,12-diHETE, which is also denoted as LTB4 [See Ford-Hitchinson, J. Roy. Soc. Med., 74, 831 (1981)]. The assay of this Example measures the ability of the compounds of the invention to inhibit the synthesis of LTB4 by rat glycogenelicited polymorphonuclear leukocytes (PMN).
The assay is carried out as follows:
Rat polymorphonuclear leukocytes (PMNs) are obtained from female Wistar rats (150-200 g) which receive an injection of 6% glycogen (10 ml i.p.). Rats are sacrificed 18-24 hours post injection by CO2 asphyxiation and the elicited cells are harvested by peritoneal lavage using physiological saline (0.9% NaCl). The exudate is centrifuged at 400 x g for 10 minutes. The supernatant fluid is discarded and the cell pellet is resuspended to a concentration of 2.0×10^7 cells/ml in HBSS containing Ca^++ and Mg^++ and 10 μM L-cysteine.
To 1 ml aliquots of cell suspension, test drugs or vehicle are added, then preincubated at 37° C. for 10 minutes. […] Supernatants are then analyzed by HPLC analysis on a 15 cm×4.6 mm ID Supelcosil LC-18 (Supelco)(3M) column, using a two solvent system at a flow rate of 1.4 ml total flow as follows: […]
Injections: 150 μl of each supernatant is injected directly onto column and ^3 H arachidonic acid metabolites are monitored using an on-line radioactivity detector (Ramona, IN/US, Fairfield, NJ). […]

[2] = test system: carrageenan paw edema (acute inflammatory response) in Sprague-Dawley rats; experiment: rat carrageenan paw edema assay; assay type: in vivo, rat (Sprague-Dawley); conditions: for % Inhibition (peroral) of paw edema: 1 hour before carrageenan, 3 hours
Description: The compounds of the invention are further tested in the rat carrageenan paw edema assay to determine their ability to inhibit the acute inflammatory response. This assay is carried out as follows: 140-180 gm mal Sprague-Dawley rats, in groups of 6 animals are injected subcutaneously in the right paw with 0.1 ml of 1% carrageenan at zero time. Mercury plethysmographic readings (ml) of the paw are made at zero time and 3 hours later. Test compounds are suspended or dissolved in 0.5% methycellulose and given perorally 1 hour prior to carrageenan administration. The increase in paw volume (edema in ml.) produced by the carrageenan is measured. […] Unpaired Student's t-test is used to determine statistical significance.

[3] = test system: adjuvant-induced polyarthritis in Sprague-Dawley rats; experiment: adjuvant arthritis assay; assay type: in vivo, rat (Sprague-Dawley); conditions: oral dose 30 mg/kg

CC(=NNC(=N)N)c1cccc(OCc2ccc3ccccc3n2)c1 [Example 2, 2-[1-[3-(2-Quinolinylmethoxy)phenyl]ethylidene]hydrazinecarboximidamide]
>50% Inhibitory at 50 μm (LTB4 synthesis) [1]: + (those compounds having an inhibition of >50%) | % Inhibition (peroral) of paw edema ([2]; at 100 mg/kg peroral): 43%

CC(=NNC(=N)N)c1cccc(OCc2ccc3ccccc3c2)c1 [Example 1, 2-[1-[3-(2-Naphthalenylmethoxy)phenyl]ethylidene]-hydrazinecarboximidamide,0.1 hydrate]
% Inhibition (peroral) of paw edema ([2]; at 50 mg/kg peroral): 42% | % Change of Right Paw Edema at Day 4 ([3]; day 4): 50% | % Change of Left Paw Edema at Day 16 ([3]; day 16): 31%

COc1ccc2c(c1)c(CC(=O)O)c(C)n2C(=O)c1ccc(Cl)cc1 [Indomethacin, reference compound]
ED50 ([2]; Rattus norvegicus, po, 3 h, read-out: Oral ED50 (95% C.L.) mg/kg): 3.7 mg/kg
